Activity calls are given as the source filed them.
Experiments:
[1] = Luminescence Cell-Based Dose Retest to Confirm Inhibitors of Cancer Stem Cells. [Related pubchem assays (depositor defined):AID2717, AID2721]; type: functional; conditions: Homo sapiens
[2] = A cytotoxicity screen of small molecule inhibitors of the PhoP region in Salmonella typhi identified in the primary screen. [Related pubchem assays: 1850, 1864, 1985 ]; type: functional
[3] = molecular target: FAD-linked sulfhydryl oxidase ALR (Homo sapiens, UniProt P55789); experiment: inhibitors of human ALR sulfhydryl oxidase, dose response, biochemical, H2O2 detection, luminescence, cherry-pick (AID 493248)
[4] = M. tuberculosis H37Rv growth inhibitors, H37Rv strain (AID 1626); type: functional
[5] = Luminescence Cell-Based Dose Confirmation to Identify Activators of 5'UTR Stem-Loop Driven Alpha-Synuclein mRNA Translation in H4 Neuroglioblastoma Cells. [Related pubchem assays: 1829 (Project Summary), 1814 (Primary HTS)]; type: functional
[6] = molecular target: T1, Sentrin-specific protease 8 (Homo sapiens, UniProt Q96LD8); type: functional;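 also: luminescence read-out of SENP8 inhibition, dose-response confirmation following an ultra-high-throughput screen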
T1 sequence (Q96LD8 whole entry): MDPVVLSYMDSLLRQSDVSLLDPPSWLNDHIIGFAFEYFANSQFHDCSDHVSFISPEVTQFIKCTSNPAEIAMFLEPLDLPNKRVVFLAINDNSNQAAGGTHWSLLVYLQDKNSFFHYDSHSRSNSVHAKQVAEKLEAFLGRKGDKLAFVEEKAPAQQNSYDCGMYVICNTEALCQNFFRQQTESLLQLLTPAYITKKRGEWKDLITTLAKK

[7] = Luminescence Cell-Based Dose Confirmation HTS to Identify Activators of 5'UTR Stem-Loop Driven Alpha-Synuclein mRNA Translation in H4 Neuroglioblastoma Cells. [Related pubchem assays: 1829 (Project Summary), 1814 (Primary HTS)]; type: functional
[8] = molecular target: T2, Sentrin-specific protease 6 (Homo sapiens, UniProt Q9GZR1); type: functional;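 also: Luminescence-based dose-response confirmatory assay of SENP6 inhibition, following up an ultra-high-throughput screen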
T2 sequence (Q9GZR1 whole entry): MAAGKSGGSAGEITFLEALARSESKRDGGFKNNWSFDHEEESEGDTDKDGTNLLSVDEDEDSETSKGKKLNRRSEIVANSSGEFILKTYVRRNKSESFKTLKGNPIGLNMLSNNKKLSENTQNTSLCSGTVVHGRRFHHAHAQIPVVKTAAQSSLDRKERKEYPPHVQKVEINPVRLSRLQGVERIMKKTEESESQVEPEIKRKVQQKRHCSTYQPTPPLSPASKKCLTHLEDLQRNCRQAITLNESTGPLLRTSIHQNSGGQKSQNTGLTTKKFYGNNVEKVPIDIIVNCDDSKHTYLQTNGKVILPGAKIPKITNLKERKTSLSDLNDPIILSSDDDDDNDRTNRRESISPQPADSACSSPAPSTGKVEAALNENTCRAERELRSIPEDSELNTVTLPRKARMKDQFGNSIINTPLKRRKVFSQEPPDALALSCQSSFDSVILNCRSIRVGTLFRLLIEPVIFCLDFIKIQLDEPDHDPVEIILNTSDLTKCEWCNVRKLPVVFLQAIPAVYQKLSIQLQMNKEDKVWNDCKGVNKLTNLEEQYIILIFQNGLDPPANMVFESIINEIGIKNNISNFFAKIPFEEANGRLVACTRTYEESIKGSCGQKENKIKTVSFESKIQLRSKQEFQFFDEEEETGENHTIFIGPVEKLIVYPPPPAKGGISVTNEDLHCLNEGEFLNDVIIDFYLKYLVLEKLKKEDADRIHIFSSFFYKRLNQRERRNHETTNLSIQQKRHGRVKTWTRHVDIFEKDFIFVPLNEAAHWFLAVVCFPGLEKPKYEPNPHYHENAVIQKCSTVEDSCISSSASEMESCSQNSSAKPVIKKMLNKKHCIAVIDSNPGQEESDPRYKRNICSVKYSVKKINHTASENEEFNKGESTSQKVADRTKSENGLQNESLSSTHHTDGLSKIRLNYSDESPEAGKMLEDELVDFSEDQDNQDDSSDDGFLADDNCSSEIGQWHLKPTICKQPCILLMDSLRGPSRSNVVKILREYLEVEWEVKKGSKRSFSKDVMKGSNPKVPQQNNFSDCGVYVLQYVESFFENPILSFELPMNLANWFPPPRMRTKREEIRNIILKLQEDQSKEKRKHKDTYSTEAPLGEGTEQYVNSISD

[9] = Luminescence Cell-Based Dose Response to Identify Activators of Luciferase Translation or Activity in H4-C Neuroglioblastoma Cells. [Related pubchem assays: 1829 (Project Summary), 1814 (Primary HTS)]; type: functional
[10] = molecular target: T3, Sentrin-specific protease 7 (Homo sapiens, UniProt Q9BQF6); type: functional;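 also: Luminescence-based dose-response confirmation of ultra-high-throughput screening hits, measuring inhibition of SENP7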
T3 sequence (Q9BQF6 whole entry): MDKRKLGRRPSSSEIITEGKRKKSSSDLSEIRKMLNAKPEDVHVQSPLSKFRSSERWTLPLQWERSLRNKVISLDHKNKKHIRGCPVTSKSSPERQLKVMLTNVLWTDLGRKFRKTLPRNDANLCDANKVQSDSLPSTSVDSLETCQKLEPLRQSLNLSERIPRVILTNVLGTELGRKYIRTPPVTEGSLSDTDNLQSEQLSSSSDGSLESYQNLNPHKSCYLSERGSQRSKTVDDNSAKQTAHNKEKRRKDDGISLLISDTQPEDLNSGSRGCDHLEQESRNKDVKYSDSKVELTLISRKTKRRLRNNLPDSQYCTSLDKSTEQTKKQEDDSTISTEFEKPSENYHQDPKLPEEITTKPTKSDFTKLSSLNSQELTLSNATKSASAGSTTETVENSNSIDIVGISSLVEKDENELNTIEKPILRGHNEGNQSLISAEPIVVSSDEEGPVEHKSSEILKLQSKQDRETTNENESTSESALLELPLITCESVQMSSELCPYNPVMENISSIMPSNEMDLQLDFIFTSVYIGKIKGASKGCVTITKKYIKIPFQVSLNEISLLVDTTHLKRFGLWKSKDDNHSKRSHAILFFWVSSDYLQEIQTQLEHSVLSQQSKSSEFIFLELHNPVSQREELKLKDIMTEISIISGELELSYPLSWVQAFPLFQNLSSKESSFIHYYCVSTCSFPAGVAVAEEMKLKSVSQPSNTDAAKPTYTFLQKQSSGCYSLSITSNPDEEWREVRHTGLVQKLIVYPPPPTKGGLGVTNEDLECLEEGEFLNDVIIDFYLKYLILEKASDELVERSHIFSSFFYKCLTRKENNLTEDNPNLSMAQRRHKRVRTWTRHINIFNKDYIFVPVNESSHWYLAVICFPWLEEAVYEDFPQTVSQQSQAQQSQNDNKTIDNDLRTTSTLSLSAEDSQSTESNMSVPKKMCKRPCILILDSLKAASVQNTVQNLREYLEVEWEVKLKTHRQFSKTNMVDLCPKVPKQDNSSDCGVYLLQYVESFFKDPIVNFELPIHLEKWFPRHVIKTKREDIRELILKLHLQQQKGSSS

[11] = Luminescence Cell-Based Dose Response HTS to Identify Activators of Luciferase Translation or Activity in H4 […] Cells. [Related pubchem assays: 1829 (Project Summary), 1814 (Primary HTS)]; type: functional
H4 = experiment: Luminescence Cell-Based Dose Response HTS to Identify Activators of 5'UTR Stem-Loop Driven Prion Protein mRNA Translation in H4 Neuroglioblastoma Cells. [Related pubchem assays: 1829 (Project Summary), 1814 (Primary HTS)]; type: functional; conditions: Homo sapiens
[12] = Luminescence Cell-Based Dose Response to Identify Activators of 5'UTR Stem-Loop Driven Prion Protein mRNA Translation in H4-C Neuroglioblastoma Cells. [Related pubchem assays: 1829 (Project Summary), 1814 (Primary HTS)]; type: functional
Caspase-3 = molecular target: T4, Caspase-3 (Homo sapiens, UniProt P42574); type: functional;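 also: Dose-response selectivity test against caspase-3 for candidate inhibitors of sentrin-specific proteases (SENPs)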
T4 sequence (P42574 whole entry): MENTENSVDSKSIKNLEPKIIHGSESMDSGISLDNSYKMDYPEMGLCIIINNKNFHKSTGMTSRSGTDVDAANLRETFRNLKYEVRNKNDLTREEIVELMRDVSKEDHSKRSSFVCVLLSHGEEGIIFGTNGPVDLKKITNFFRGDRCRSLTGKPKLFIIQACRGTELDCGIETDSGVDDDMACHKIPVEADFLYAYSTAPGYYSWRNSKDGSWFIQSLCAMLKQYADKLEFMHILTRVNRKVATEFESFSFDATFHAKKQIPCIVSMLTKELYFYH

[13] = molecular target: T5, Mannose-6-phosphate isomerase (Homo sapiens, UniProt P34949); experiment: human PMI inhibitors, high substrate, primary screen, biochemical, fluorescence intensity, high mannose 6-phosphate (AID 1220)
T5 sequence (P34949 whole entry): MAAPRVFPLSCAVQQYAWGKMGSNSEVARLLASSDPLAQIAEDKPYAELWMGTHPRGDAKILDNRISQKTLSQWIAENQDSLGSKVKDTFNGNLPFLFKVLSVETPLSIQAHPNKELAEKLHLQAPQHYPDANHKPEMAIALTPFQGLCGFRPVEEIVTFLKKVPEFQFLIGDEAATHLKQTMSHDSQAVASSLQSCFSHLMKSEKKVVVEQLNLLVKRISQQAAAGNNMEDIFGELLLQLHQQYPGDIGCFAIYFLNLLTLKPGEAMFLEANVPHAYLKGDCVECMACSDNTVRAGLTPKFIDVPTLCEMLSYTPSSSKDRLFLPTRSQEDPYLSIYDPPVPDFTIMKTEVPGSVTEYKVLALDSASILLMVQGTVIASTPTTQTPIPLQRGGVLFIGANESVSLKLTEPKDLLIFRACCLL

[14] = molecular target: T5, Mannose-6-phosphate isomerase; experiment: inhibitors of human PMI, primary screen, biochemical, fluorescence intensity, coupled assay (AID 1209)

FAD-linked sulfhydryl oxidase ALR, sequence (P55789 whole entry): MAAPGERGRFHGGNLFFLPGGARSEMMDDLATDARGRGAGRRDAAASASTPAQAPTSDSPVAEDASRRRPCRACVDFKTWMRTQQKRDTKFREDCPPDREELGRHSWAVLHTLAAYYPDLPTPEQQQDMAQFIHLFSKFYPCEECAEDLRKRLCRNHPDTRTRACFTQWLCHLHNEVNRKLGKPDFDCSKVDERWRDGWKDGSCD

O=C(NCc1ccco1)c1ccc2c(c1)N(Cc1ccccc1)CCS2
AC50 [1]: 11.3 µM (active) | EC50 [2]: > 50 µM (active) | AC50 [3]: 81.2 µM (active)

CCOC(=O)c1ccc(NC(C)=C2C(=O)NC(=O)NC2=O)cc1
IC50 [4]: > 100 µM (active)

CCCCC(=O)Nc1ccc2c(c1)oc1ccccc12
IC50 [4]: > 100 µM (active)

COc1ccc(NC2=CC(c3ccc(OC)cc3)N(c3ccc(OC)cc3)C2=O)cc1 (centres undefined)
IC50 [4]: > 100 µM (active)

O=C1c2ccccc2C(=O)N1CCSc1ccccc1
EC50 [5]: 0.279 µM (active) | IC50 [6]: 35 µM (active) | EC50 [7]: 21.9 µM (active) | IC50 [8]: 30.4 µM (active) | EC50 [9]: 0.42 µM (active) | IC50 [10]: 9.56 µM (active) | EC50 [11]: 0.18 µM (active) | EC50 (H4): < 0.1 µM (active) | EC50 [12]: 1.41 µM (active) | IC50 (Caspase-3): 14.5 µM (active)

CC(C)CCSc1cc(NCCO)c([N+](=O)[O-])c2nonc12
IC50 [13]: > 50 µM (not active) | IC50 [14]: > 50 µM (not active)

c1ccc(CSCc2cn3ccsc3n2)cc1
IC50 [13]: > 50 µM (not active) | EC50 [7]: 0.562 µM (active) | EC50 [11]: 40.7 µM (active) | EC50 (H4): 7.85 µM (active) | IC50 [14]: > 50 µM (not active)

C=CCSc1nnc(NC(=O)CSc2nc3ccccc3o2)s1
EC50 [2]: > 50 µM (active)

From ChEMBL document CHEMBL1201862, “PubChem BioAssay data set” (2004)
